Patent US20250144069A1, “BILOBALIDE DERIVATIVE COMPOUNDS FOR TREATING NEUROLOGICAL DISEASES AND CANCERS” (The Chinese University of Hong Kong, priority 2023, published 2025)

Tests used:
[1] = test system: HT22 mouse hippocampal cell line; test: RSL3-induced ferroptosis model, cell viability (CCK-8)
Method: In this example, the anti-ferroptotic properties of the BB analogues described in preceding examples were evaluated by a RSL3-induced ferroptosis model. […] To evaluate the anti-ferroptosis activity of BB analogues, we developed a phenotypic screening based on RSL3-induced ferroptosis model on HT22 mouse hippocampal cell line, HMC3 microglial cell line and BV-2 murine microglial cell line which were co-treated or pre-treated with RSL3 and BB analogues for 2-24 h, and the cell viability was subsequently measured.
HMC3 cell line was maintained in Minimum Essential Medium (MEM, Gibco) supplemented with 1× non-essential amino acid (Gibco), 1 mM sodium pyruvate (Gibco), 10% fetal bovine serum (FBS) (Gibco) and 1% penicillin/streptomycin (Gibco). BV-2 cell line was maintained in Roswell Park Memorial Institute (RPMI) 1640 medium (Gibco) supplemented with 10% FBS and 1% penicillin/streptomycin, and HT22 cell line was maintained in Dulbecco's Modified Eagle's Medium (DMEM) (Gibco) supplemented with 10% FBS and 1% penicillin/streptomycin. All cells were incubated at 37° C. in a humidified atmosphere under 5% CO2.
For phenotypic screening of bilobalide (BB) analogues, 5,000 cells per well (100 uL volume) of HT22, HMC3 or BV-2 cells were placed in 96-well plate and allowed to adhere for 22 h. After which, cells were pre-treated with 200 nM (on HT22, HMC3) or 500 nM (on BV-2) of RSL3 (Bidepharm) for 2 h respectively. Medium was then replaced by 50 μM BB analogues and followed by 22 h incubation subsequently. Cell viability was measured using cell counting kit-8 (CCK-8) (MCE). For dose-response of BB analogues, RSL3, HT22 and HMC3 cells (seeded on 96-well plates at 5,000 cells per well) were treated with multiple doses of RSL3 for 2 h. […] Cell viability was measured after 22 h treatment by CCK-8. […] Cell viability was measured by CCK-8 using CLARIOstar monochromator multimode plate reader under 450 nm wavelength.
In this example, the cells were pre-treated with RSL3 (200 nM for HT22 and HMC3, 500 nM for BV-2) for two hours, followed by bilobalide analogues treatment (50 PM) for 22 hours. Cell viability was measured using cell counting kit-8 (CCK-8); n=5 technical replicates. […] Such effect was further investigated by treating the cell lines with various doses of RSL3.

[2] = test system: GAPDH; test: GAPDH protein level by Western-blot after RSL3; type: cell-based; details: HMC3, 500 nM RSL3 2 h, then various concentrations of compound 8 h
Method: In FIN56 assay, HMC3 (300,000 cells per well on 6-well plate) was pre-treated with FIN56 (2.5, 1.25, 0.625 μM) for 2 h, followed by 8 h treatment of DMSO only (0.1%) or XBB-037 (50 μM). In RSL3 assay, HMC3 (300,000 cells per well on 6-well plate) was pre-treated with RSL3 (750, 500, 250 nM) for 2 h, followed by 4 h or 8 h treatment of DMSO only (0.1%) or XBB-037 (50 μM). […] Antibodies for GPX4 (52455, CST) was used at 1:500 dilution, β-Actin (AC026, ABclonal) was used at 1:400,000 dilution, GAPDH (AC035, ABclonal) was used at 1:3000 dilution. […] Band intensity was normalized by image lab software.
This observation reflected the governing of GPX4 by bilobalide analogue XBB-037, which played an important role in the mechanism against RSL3-induced ferroptosis.

[3] = test system: HMC3 cells; test: Lipid peroxidation level by flow cytometry using C11-BODIPY; type: cell-based; details: HMC3, 50 nM RSL3 2 h, then 50, 25 and 12.5 μM compound 3 h
Method: For flow cytometry, HMC3 cells (seeded 50,000 cells per well on 24-well plate one day prior to the experiment) were pretreated with 50 nM RSL3 for 2 h. […] After which medium was replaced with BODIPY™ 581/591C11 (10 μM, Invitrogen) or CellROX™ Green (5 μM, Invitrogen) for 30 min staining. Cells were then washed 3 times with PBS and collected. Fluorescence was measured by BD FACSympgony A5.2 SORP Flow Cell Analyzer (BD Biosciences).
Disequilibrium ROS level acts as a direct initiator of lipid peroxidation, which is one of the major hallmarks of ferroptosis. In this example, HMC3 cells according to the conditions in Table 4 were subjected to measurement of lipid peroxidation level using flow cytometry and the lipid peroxidation sensor C11-BODIPY.
For flow cytometry, HMC3 cells (seeded 50,000 cells per well on 24-well plate one day prior to the experiment) were pretreated with 50 nM RSL3 for 2 h. After RSL3 treatment, medium was replaced by DMSO (0.1%) only, SXQ087-1 (10, 5 and 2.5 μM), following by 3 h treatment. After which medium was replaced with BODIPY™ 581/591C11 (10 μM, Invitrogen) for 30 min staining. Cells were then washed 3 times with PBS and collected. Fluorescence was measured by BD FACSympgony A5.2 SORP Flow Cell Analyzer (BD Biosciences).
Lipid peroxidation is one of the major hallmarks of ferroptosis. In this example, HMC3 cells according to the conditions in Table 5 were subjected to measurement of lipid peroxidation level using flow cytometry and the lipid peroxidation sensor C11-BODIPY.

[4] = test system: Jurkat cells; test: Single-dose CCK-8 cell viability screening (suspension cells); type: cell-based, human; details: Homo sapiens, Jurkat, 48 h, Jurkat cells, 50 uM, CCK-8, read-out: % Viability (50 uM, 48 h) Jurkat
[5] = test system: BV-2 murine microglial cell line; test: RSL3-induced ferroptosis model, cell viability (CCK-8); details: BV-2, RSL3 500 nM 2 h, then 50 μM compound 22 h
[6] = test system: HMC3 microglial cell line; test: as above; type: cell-based
[7] = test system: HMC3 cells; test: Cytotoxicity, cell viability of HMC3 cells; type: cell-based; details: 24 h treatment
Text: Now referring to FIG. 11A, a chart showing the cell viability (%) of HMC3 cells treated with SXQ087-1, XBB-037 or bilobalide.

[8] = test system: A549 cells; test: Single-dose CCK-8 cell viability screening (adherent cells); type: cell-based, human; details: Homo sapiens, A549, 48 h, A549 cells, 50 uM, 48 h, CCK-8; read-out: % Viability (50 uM, 48 h) A549
[9] = as above; type: cell-based, human; details: Homo sapiens, A549, 48 h, average of A549 and Jurkat % viability, 50 uM, 48 h

## CC(C)(C)[C@]1(O)C[C@@H]2OC(=O)C[C@@]23C(=O)O[C@@H]2N(c4ccc(N)cc4)C(=O)[C@H](OC(=O)c4ccccc4)[C@]213 [XBB-037, 4-(3aS,5aS,8R,9R,10aS)-8-(benzoyloxy)-9-(tert-butyl)-9-hydroxy-2,4,7-trioxohexahydro-4H,9H-furo[3″,2″:2′,3′]cyclopenta[1′,2′:3,4]furo[2,3-b]pyrrol-6(5aH)-yl)benzenaminium chloride]
[1]; HT22, RSL3 200 nM 2 h, then 50 μM compound 22 h
  inhibition of RSL3-induced ferroptosis (phenotypic screening, cell viability): effectively inhibit ferroptosis
[1]; HT22, multiple doses of RSL3, 50 μM compound
  shift of RSL3 dose-dependent viability curve: diminished RSL3 lethality
[2]
  GAPDH level after RSL3: restored the level of GAPDH
[3]
  lipid peroxidation level (C11-BODIPY): significant down-regulation of RSL3-induced lipid peroxidation accumulation in a dose-dependent manner
[4]
  viability at 50 µM: 86%
[5]
  inhibition of RSL3-induced ferroptosis (phenotypic screening, cell viability): effectively inhibit ferroptosis
[6]; HMC3, RSL3 200 nM 2 h, then 50 μM compound 22 h
  inhibition of RSL3-induced ferroptosis (phenotypic screening, cell viability): effectively inhibit ferroptosis
[6]; HMC3, multiple doses of RSL3, 50 μM compound
  shift of RSL3 dose-dependent viability curve: diminished RSL3 lethality
[7]
  cytotoxicity (cell viability): no significant cytotoxicity
[8]
  viability at 50 µM: 95%
[9]
  viability at 50 µM: 90.5%
